Measured values from the kinase profiling compilation of Christmann-Franck et al. (2016).

Experiments:
Test in all cases: split-luciferase competition binding
[1] = molecular target: RPS6KA3 KD1 (human) (UniProt P51812); settings: compound 10.0 µM
[2] = molecular target: RPS6KA5 KD1 (human) (UniProt O75582); settings: compound 10.0 µM
[3] = molecular target: AKT1 (human) (UniProt P31749); settings: compound 10.0 µM
[4] = molecular target: AURKB (human) (UniProt Q96GD4); settings: compound 10.0 µM
[5] = molecular target: SGK2 (human) (UniProt Q9HBY8); settings: compound 10.0 µM
[6] = molecular target: PRKCD (human) (UniProt Q05655); settings: compound 10.0 µM
[7] = molecular target: PRKCH (human) (UniProt P24723); settings: compound 10.0 µM
[8] = molecular target: PRKX (human) (UniProt P51817); settings: compound 10.0 µM
[9] = molecular target: RPS6KA6 KD1 (human) (UniProt Q9UK32); settings: compound 10.0 µM
[10] = molecular target: PRKCQ (human) (UniProt Q04759); settings: compound 10.0 µM
[11] = molecular target: SGK3 (human) (UniProt Q96BR1); settings: compound 10.0 µM
[12] = molecular target: AURKA (human) (UniProt O14965); settings: compound 10.0 µM
[13] = molecular target: AKT3 (human) (UniProt Q9Y243); settings: compound 10.0 µM
[14] = molecular target: AKT2 (human) (UniProt P31751); settings: compound 10.0 µM
[15] = molecular target: PRKACB (human) (UniProt P22694); settings: compound 10.0 µM
[16] = molecular target: AURKC (human) (UniProt Q9UQB9); settings: compound 10.0 µM
[17] = molecular target: RPS6KA2 KD1 (human) (UniProt Q15349); settings: compound 10.0 µM
[18] = molecular target: RPS6KA4 KD1 (human) (UniProt O75676); settings: compound 10.0 µM
[19] = molecular target: PKN1 (human) (UniProt Q16512); settings: compound 10.0 µM
[20] = test system: PRKACA (mouse); settings: compound 10.0 µM; accession and sequence are those of the human protein
[21] = molecular target: RPS6KA1 KD1 (human) (UniProt Q15418); settings: compound 10.0 µM
[22] = molecular target: PRKCE (human) (UniProt Q02156); settings: compound 10.0 µM
[23] = molecular target: PRKCI (human) (UniProt P41743); settings: compound 10.0 µM
[24] = molecular target: PDPK1 (human) (UniProt O15530); settings: compound 10.0 µM
[25] = molecular target: STK32B (human) (UniProt Q9NY57); settings: compound 10.0 µM
[26] = molecular target: PRKCG (human) (UniProt P05129); settings: compound 10.0 µM
[27] = molecular target: DMPK (human) (UniProt Q09013); settings: compound 10.0 µM
DMPK (human), sequence (Q09013 whole entry, looked up): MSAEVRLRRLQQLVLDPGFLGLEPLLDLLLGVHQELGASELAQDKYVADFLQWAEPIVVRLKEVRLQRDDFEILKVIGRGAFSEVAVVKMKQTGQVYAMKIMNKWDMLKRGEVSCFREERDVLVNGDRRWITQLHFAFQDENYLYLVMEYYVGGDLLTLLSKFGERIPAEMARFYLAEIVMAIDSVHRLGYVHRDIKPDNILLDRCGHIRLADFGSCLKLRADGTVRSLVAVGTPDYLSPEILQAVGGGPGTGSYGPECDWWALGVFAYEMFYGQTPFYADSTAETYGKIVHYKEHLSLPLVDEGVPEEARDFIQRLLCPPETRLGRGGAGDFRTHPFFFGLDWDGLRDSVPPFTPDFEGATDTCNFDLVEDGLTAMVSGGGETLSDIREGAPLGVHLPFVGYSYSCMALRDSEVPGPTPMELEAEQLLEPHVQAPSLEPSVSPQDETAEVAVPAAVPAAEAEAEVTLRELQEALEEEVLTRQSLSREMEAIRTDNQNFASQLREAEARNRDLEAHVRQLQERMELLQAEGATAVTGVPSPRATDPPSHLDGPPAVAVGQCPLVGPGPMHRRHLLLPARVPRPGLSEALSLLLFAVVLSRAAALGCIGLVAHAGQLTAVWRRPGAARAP

AURKC (human), sequence (Q9UQB9 whole entry, looked up): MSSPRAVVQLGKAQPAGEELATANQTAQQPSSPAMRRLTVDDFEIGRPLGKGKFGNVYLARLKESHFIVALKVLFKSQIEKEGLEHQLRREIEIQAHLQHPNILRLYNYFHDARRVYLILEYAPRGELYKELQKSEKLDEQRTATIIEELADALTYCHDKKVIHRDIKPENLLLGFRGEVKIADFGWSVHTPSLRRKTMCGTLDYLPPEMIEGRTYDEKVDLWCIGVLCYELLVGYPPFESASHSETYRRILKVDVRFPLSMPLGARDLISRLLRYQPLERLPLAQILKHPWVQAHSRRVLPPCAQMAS
RPS6KA6 KD1 (human), sequence (Q9UK32 whole entry, looked up): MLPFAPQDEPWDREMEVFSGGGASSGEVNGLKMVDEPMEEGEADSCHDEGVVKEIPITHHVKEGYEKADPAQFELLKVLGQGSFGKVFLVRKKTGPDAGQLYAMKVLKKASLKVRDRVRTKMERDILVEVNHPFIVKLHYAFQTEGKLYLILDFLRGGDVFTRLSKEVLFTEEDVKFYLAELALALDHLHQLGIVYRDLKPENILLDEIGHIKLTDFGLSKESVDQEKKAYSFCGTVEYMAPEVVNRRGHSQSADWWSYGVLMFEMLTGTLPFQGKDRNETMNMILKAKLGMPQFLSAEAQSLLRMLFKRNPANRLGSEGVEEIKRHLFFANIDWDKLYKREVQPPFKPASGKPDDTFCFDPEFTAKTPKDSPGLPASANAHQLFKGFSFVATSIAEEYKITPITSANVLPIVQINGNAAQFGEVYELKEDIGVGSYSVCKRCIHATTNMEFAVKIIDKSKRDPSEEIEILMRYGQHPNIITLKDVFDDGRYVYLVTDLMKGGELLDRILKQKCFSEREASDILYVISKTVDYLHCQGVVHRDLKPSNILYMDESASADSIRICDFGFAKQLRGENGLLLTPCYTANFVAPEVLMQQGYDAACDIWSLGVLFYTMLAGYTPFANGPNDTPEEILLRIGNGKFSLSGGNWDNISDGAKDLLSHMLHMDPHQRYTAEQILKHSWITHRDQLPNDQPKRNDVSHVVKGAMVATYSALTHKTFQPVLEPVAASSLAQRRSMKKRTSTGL
PKN1 (human), sequence (Q16512 whole entry, looked up): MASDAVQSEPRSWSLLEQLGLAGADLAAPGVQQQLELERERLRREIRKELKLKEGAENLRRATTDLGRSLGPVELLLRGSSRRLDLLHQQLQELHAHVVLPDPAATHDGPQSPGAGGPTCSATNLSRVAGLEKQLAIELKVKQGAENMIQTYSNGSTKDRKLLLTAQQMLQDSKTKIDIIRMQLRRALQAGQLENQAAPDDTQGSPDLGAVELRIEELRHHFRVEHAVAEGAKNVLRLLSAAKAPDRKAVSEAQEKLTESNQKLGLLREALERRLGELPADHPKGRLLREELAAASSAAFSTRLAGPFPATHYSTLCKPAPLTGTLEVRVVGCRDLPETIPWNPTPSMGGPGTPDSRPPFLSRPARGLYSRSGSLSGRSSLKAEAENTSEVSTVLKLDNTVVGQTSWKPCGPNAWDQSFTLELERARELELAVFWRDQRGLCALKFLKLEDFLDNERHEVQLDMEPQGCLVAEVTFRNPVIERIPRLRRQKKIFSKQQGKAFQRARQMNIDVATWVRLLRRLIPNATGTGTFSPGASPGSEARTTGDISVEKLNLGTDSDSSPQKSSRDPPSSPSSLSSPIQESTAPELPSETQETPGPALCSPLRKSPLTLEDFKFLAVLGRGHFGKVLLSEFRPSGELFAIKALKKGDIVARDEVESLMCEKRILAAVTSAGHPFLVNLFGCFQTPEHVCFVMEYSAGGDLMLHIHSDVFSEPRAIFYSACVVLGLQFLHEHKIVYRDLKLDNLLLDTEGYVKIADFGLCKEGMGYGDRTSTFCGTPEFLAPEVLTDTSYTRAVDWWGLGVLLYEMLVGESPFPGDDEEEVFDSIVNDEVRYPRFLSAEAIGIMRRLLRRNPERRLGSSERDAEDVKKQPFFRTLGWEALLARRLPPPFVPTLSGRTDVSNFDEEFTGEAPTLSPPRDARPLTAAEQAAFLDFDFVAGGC
PRKX (human), sequence (P51817 whole entry, looked up): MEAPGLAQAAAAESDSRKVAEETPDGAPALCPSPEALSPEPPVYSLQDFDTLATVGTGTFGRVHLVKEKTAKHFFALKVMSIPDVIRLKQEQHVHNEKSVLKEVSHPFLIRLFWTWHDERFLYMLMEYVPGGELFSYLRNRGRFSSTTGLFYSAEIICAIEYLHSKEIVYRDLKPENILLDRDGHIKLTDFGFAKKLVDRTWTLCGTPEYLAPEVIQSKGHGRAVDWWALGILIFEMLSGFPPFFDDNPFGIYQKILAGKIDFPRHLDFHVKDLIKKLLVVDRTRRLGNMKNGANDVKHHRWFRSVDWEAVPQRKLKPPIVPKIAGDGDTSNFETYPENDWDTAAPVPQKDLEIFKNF
SGK3 (human), sequence (Q96BR1 whole entry, looked up): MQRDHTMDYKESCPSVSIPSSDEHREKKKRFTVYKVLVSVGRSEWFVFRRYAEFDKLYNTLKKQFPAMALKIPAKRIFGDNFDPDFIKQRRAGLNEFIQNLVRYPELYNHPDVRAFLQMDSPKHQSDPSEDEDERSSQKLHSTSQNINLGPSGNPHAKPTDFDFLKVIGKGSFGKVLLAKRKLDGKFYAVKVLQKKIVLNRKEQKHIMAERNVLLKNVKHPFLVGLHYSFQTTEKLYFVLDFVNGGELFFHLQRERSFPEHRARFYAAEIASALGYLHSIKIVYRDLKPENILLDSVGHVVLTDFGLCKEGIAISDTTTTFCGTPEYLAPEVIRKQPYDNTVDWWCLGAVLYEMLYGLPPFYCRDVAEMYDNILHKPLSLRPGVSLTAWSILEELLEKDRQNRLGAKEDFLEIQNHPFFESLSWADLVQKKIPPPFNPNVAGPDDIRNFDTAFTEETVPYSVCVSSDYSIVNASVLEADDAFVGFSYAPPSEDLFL
PRKCQ (human), sequence (Q04759 whole entry, looked up): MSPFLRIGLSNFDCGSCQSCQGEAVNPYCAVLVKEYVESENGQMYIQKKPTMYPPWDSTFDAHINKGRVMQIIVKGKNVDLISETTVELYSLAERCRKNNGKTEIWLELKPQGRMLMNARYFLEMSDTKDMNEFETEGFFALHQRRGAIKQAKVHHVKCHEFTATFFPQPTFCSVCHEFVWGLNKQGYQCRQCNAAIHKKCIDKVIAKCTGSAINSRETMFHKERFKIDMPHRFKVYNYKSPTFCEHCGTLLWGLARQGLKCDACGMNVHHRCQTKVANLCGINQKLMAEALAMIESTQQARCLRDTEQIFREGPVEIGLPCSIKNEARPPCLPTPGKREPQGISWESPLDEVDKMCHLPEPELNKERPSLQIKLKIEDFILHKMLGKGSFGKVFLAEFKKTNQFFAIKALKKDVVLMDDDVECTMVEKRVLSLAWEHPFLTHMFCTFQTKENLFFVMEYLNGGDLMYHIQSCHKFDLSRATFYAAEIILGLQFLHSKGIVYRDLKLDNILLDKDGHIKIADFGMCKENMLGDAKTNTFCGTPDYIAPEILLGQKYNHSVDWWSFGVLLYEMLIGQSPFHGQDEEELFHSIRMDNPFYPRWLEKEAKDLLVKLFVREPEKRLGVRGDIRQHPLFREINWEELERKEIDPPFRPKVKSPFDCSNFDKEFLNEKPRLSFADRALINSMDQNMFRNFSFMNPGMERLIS
AURKA (human), sequence (O14965 whole entry, looked up): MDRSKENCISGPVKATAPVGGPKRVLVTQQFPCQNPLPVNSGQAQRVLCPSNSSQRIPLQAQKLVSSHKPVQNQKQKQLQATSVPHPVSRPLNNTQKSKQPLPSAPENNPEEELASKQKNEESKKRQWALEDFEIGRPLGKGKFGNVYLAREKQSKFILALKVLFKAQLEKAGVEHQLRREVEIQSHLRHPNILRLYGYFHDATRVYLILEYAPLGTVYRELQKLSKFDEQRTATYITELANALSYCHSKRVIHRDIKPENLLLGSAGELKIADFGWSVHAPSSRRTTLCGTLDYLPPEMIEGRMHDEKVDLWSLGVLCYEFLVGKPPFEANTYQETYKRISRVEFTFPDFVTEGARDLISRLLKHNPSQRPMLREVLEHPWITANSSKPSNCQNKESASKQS
STK32B (human), sequence (Q9NY57 whole entry, looked up): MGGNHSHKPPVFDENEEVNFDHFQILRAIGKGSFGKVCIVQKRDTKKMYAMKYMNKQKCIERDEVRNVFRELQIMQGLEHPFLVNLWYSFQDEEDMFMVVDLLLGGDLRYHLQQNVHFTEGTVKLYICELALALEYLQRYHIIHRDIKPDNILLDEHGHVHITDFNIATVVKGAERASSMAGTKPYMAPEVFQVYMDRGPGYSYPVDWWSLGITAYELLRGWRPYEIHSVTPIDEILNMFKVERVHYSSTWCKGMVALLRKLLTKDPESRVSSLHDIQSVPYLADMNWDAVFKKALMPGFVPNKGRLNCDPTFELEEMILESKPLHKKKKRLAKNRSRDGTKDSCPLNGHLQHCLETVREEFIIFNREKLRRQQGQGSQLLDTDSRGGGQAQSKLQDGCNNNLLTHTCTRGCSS

For `O=C1NC(=O)c2cc(Nc3ccc(F)cc3)c(Nc3ccc(F)cc3)cc21`, the inhibition [1] was 0%, the inhibition [2] was 0% and the inhibition [3] was 15%. The inhibition [4] was 3%, the inhibition [5] was 0% and the inhibition [6] was 0%. It also gave an inhibition [7] of 1%, an inhibition [8] of 8% and an inhibition [9] of 0%. The inhibition [10] was 12%, the inhibition [11] was 12% and the inhibition [12] was 0%. It also gave an inhibition [13] of 0%, an inhibition [14] of 0% and an inhibition [15] of 8%. The inhibition [16] was 0%, the inhibition [17] was 3% and the inhibition [18] was 0%. For the same compound, the inhibition [19] was 0%, the inhibition [20] was 13% and the inhibition [21] was 0%. It also gave an inhibition [22] of 0%, an inhibition [23] of 0% and an inhibition [24] of 10%. It also gave an inhibition [25] of 19%.

With `Cc1ccc(-c2nn(C(C)(C)C)c3ncnc(N)c23)cc1` the inhibition [1] was 8%, the inhibition [2] was 0% and the inhibition [3] was 2%. It also gave an inhibition [4] of 0%, an inhibition [5] of 0% and an inhibition [6] of 0%. For the same compound, the inhibition [7] was 8%, the inhibition [8] was 0% and the inhibition [9] was 14%. The inhibition [10] was 0%, the inhibition [11] was 0% and the inhibition [12] was 0%. The inhibition [13] was 0%, the inhibition [14] was 0% and the inhibition [15] was 0%. For the same compound, the inhibition [16] was 0%, the inhibition [17] was 1% and the inhibition [18] was 1%. It also gave an inhibition [19] of 0%, an inhibition [21] of 27% and an inhibition [22] of 8%. It also gave an inhibition [23] of 0%, an inhibition [24] of 0% and an inhibition [25] of 58%. It also gave an inhibition [26] of 0% and an inhibition [27] of 28%.

`COc1cc2c(Nc3ccc(NC(=O)c4ccccc4)cc3)ncnc2cc1OCCCN1CCOCC1` gave an inhibition [2] of 0%, an inhibition [3] of 9% and an inhibition [4] of 55%. For the same compound, the inhibition [5] was 0%, the inhibition [6] was 0% and the inhibition [7] was 0%. It also gave an inhibition [8] of 7%, an inhibition [9] of 3% and an inhibition [10] of 0%. It also gave an inhibition [11] of 0%, an inhibition [12] of 13% and an inhibition [13] of 0%. It also gave an inhibition [14] of 0%, an inhibition [15] of 0% and an inhibition [16] of 66%. It also gave an inhibition [17] of 2%, an inhibition [18] of 0% and an inhibition [19] of 2%. For the same compound, the inhibition [20] was 7%, the inhibition [21] was 5% and the inhibition [22] was 0%. It also gave an inhibition [23] of 0%, an inhibition [24] of 0% and an inhibition [25] of 1%. For the same compound, the inhibition [26] was 6% and the inhibition [27] was 9%.

`Cn1cc(C2=C(c3cn(CCCSC(=N)N)c4ccccc34)C(=O)NC2=O)c2ccccc21` showed an inhibition [1] of 87%, an inhibition [2] of 64% and an inhibition [3] of 62%. The inhibition [4] was 13%, the inhibition [5] was 34% and the inhibition [6] was 91%. The inhibition [7] was 81%, the inhibition [8] was 32% and the inhibition [9] was 80%. The inhibition [10] was 93%, the inhibition [11] was 65% and the inhibition [12] was 2%. For the same compound, the inhibition [13] was 78%, the inhibition [14] was 28% and the inhibition [15] was 73%. For the same compound, the inhibition [16] was 10%, the inhibition [17] was 89% and the inhibition [18] was 56%. The inhibition [19] was 36%, the inhibition [20] was 62% and the inhibition [21] was 71%. It also gave an inhibition [22] of 71%, an inhibition [23] of 63% and an inhibition [24] of 2%. The inhibition [25] was 63% and the inhibition [27] was 76%.

`CCN(CC)CCNC(=O)c1c(C)[nH]c(/C=C2\C(=O)Nc3ccc(F)cc32)c1C` showed an inhibition [1] of 59%, an inhibition [3] of 28% and an inhibition [4] of 22%. For the same compound, the inhibition [5] was 44%, the inhibition [6] was 0% and the inhibition [7] was 39%. For the same compound, the inhibition [8] was 25%, the inhibition [9] was 69% and the inhibition [10] was 7%. For the same compound, the inhibition [11] was 42%, the inhibition [12] was 0% and the inhibition [13] was 26%. The inhibition [15] was 0%, the inhibition [16] was 30% and the inhibition [17] was 69%. For the same compound, the inhibition [18] was 86%, the inhibition [19] was 0% and the inhibition [20] was 2%. The inhibition [21] was 86%, the inhibition [22] was 22% and the inhibition [23] was 22%. The inhibition [24] was 10%, the inhibition [25] was 0% and the inhibition [26] was 0%. It also gave an inhibition [27] of 0%.

With `O=S(=O)(c1cccc2cnccc12)N1CCCNCC1` the inhibition [2] was 0%, the inhibition [3] was 0% and the inhibition [4] was 0%. For the same compound, the inhibition [5] was 1%, the inhibition [6] was 1% and the inhibition [7] was 17%. For the same compound, the inhibition [8] was 77%, the inhibition [9] was 0% and the inhibition [10] was 1%. The inhibition [11] was 0%, the inhibition [12] was 0% and the inhibition [13] was 0%. The inhibition [14] was 0%, the inhibition [16] was 6% and the inhibition [17] was 0%. It also gave an inhibition [18] of 0%, an inhibition [19] of 0% and an inhibition [21] of 2%. The inhibition [22] was 0%, the inhibition [23] was 38% and the inhibition [24] was 0%. It also gave an inhibition [25] of 0%, an inhibition [26] of 0% and an inhibition [27] of 0%.

With `O=S(=O)(NCCNC/C=C/c1ccc(Br)cc1)c1cccc2cnccc12` the inhibition [1] was 5%, the inhibition [2] was 0% and the inhibition [3] was 21%. For the same compound, the inhibition [4] was 2%, the inhibition [6] was 10% and the inhibition [7] was 34%. It also gave an inhibition [8] of 87%, an inhibition [9] of 5% and an inhibition [10] of 40%. For the same compound, the inhibition [11] was 41%, the inhibition [12] was 0% and the inhibition [13] was 15%. It also gave an inhibition [14] of 0%, an inhibition [15] of 75% and an inhibition [16] of 12%. For the same compound, the inhibition [17] was 0%, the inhibition [18] was 10% and the inhibition [19] was 0%. For the same compound, the inhibition [20] was 67%, the inhibition [21] was 0% and the inhibition [22] was 9%. The inhibition [23] was 80%, the inhibition [24] was 0% and the inhibition [25] was 17%. The inhibition [26] was 0% and the inhibition [27] was 0%.

`CO[C@@H]1[C@H](N(C)C(=O)c2ccccc2)C[C@H]2O[C@]1(C)n1c3ccccc3c3c4c(c5c6ccccc6n2c5c31)C(=O)NC4` was tested, and the inhibition [1] was 79%, the inhibition [2] was 66% and the inhibition [3] was 55%. The inhibition [4] was 44%, the inhibition [5] was 22% and the inhibition [6] was 52%. For the same compound, the inhibition [7] was 60%, the inhibition [8] was 71% and the inhibition [9] was 75%. The inhibition [10] was 55%, the inhibition [11] was 43% and the inhibition [12] was 26%. It also gave an inhibition [13] of 31%, an inhibition [15] of 81% and an inhibition [16] of 38%. For the same compound, the inhibition [17] was 70%, the inhibition [18] was 70% and the inhibition [19] was 23%. For the same compound, the inhibition [20] was 63%, the inhibition [21] was 56% and the inhibition [22] was 57%. It also gave an inhibition [23] of 65%, an inhibition [24] of 10% and an inhibition [25] of 56%. For the same compound, the inhibition [26] was 52% and the inhibition [27] was 29%.

Compound `O=C(c1ccc(Nc2nccc(-c3cc4ccccc4s3)n2)cc1)N1CCC(N2CCCC2)CC1` has an inhibition [1] of 2%, an inhibition [2] of 0% and an inhibition [3] of 0%. For the same compound, the inhibition [4] was 32%, the inhibition [5] was 69% and the inhibition [6] was 4%. It also gave an inhibition [8] of 29%, an inhibition [9] of 10% and an inhibition [10] of 38%. For the same compound, the inhibition [11] was 62%, the inhibition [12] was 19% and the inhibition [13] was 0%. For the same compound, the inhibition [14] was 0%, the inhibition [15] was 12% and the inhibition [16] was 15%. It also gave an inhibition [17] of 0%, an inhibition [18] of 0% and an inhibition [19] of 0%. It also gave an inhibition [20] of 12%, an inhibition [21] of 4% and an inhibition [22] of 40%. The inhibition [23] was 0%, the inhibition [24] was 9% and the inhibition [25] was 8%. It also gave an inhibition [26] of 13% and an inhibition [27] of 18%.
